{"source": "patent US20100040600A1", "about": "“Agents for Promoting the Growth of Hematopoietic Stem Cells” (CHUGAI SEIYAKU KABUSHIKI KAISHA, priority 2006, published 2010)", "origin": "cited, not measured here", "key": {"c-mpl [1]": {"test_system": "c-mpl", "conditions": "cited from earlier work"}, "c-mpl [2]": {"target": "T1, c-mpl (Mus musculus, UniProt Q08351)", "T1 sequence (Q08351 26-625)": "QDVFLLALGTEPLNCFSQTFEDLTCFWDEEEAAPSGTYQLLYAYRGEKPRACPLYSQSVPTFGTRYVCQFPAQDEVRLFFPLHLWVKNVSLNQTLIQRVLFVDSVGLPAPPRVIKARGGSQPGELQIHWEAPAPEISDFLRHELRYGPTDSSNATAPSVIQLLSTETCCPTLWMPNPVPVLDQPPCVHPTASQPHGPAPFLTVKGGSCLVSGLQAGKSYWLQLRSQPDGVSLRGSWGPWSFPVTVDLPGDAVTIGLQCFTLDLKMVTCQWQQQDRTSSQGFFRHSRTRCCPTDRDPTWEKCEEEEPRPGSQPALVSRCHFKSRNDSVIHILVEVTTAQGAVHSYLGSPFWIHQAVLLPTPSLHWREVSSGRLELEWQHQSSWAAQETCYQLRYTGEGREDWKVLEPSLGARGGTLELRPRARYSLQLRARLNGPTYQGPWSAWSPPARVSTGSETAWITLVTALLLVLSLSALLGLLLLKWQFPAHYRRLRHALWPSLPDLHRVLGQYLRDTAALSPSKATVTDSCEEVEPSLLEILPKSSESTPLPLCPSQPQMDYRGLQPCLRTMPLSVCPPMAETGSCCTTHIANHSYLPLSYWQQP", "conditions": "cited from earlier work"}, "c-mpl [3]": {"test_system": "c-mpl", "conditions": "cited from earlier work", "remark": "listed apart in the source"}, "c-mpl [4]": {"target": "T2, c-mpl (Homo sapiens, UniProt P40238)", "T2 sequence (P40238 26-635)": "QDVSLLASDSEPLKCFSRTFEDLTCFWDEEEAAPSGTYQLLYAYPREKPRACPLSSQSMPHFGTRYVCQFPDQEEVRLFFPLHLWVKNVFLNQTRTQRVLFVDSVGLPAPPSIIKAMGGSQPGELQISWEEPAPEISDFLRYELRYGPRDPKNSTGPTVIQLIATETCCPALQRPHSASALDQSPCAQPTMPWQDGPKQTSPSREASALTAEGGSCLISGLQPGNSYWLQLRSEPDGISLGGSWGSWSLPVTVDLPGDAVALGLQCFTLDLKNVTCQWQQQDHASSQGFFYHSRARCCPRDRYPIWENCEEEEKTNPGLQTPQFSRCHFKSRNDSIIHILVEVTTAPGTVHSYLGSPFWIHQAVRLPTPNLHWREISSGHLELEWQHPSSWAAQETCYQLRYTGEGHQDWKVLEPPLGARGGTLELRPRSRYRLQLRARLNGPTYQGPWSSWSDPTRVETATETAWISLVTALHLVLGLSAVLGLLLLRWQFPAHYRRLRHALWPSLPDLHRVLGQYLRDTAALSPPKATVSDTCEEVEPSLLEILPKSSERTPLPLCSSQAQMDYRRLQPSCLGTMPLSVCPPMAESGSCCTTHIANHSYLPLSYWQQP", "conditions": "cited from earlier work"}, "[5]": {"conditions": "cited from earlier work"}, "Hu BM CD34": {"test_system": "Hu BM CD34", "conditions": "in vitro activity; read-out: Hu BM CD34 differentiation assay: EC50; cited from earlier work"}, "[6]": {"target": "T3, hu c-mpl transmembrane domain (Homo sapiens, UniProt P40238)", "T3 sequence (P40238 26-635)": "T2 sequence (P40238 26-635)", "conditions": "cited from earlier work"}, "c-mpl [7]": {"test_system": "c-mpl", "conditions": "cited from earlier work", "remark": "listed apart in the source"}, "mouse receptors": {"target": "T4, mouse receptors (Mus musculus, UniProt Q08351)", "T4 sequence (Q08351 26-625)": "T1 sequence (Q08351 26-625)", "conditions": "cited from earlier work"}, "rat receptors": {"test_system": "rat receptors", "conditions": "cited from earlier work"}, "dog receptors": {"test_system": "dog receptors", "conditions": "cited from earlier work"}}, "note": "Numbered stars: 1 amine (or outer) side, 2 acyl side, 3 side chain; on linkers, the order of the positions; unused ones are H or OH. Bridge positions count the residues as written; N and C are the ends. Square brackets hold non-standard residues; d marks the D form. Peptide text beside a SMILES is read from it. I, II: the chains in the order shown. 2Nal = N[CH](Cc1ccc2ccccc2c1)C(=O)O; X1 = NC(N)NCCCC(N[*:1])C(=O)[*:2]; NMeI = CC[CH](C)[CH](NC)C(=O)O; Sar = CNCC(=O)O", "data": [{"compound": "CC1=NN(c2ccc(C)c(C)c2)C(=O)/C1=N\\Nc1cccc(-c2cccc(C(=O)O)c2)c1O", "note": "[SB297115/Eltrombopag]", "values": [{"measurement": "cross-reactivity: cynomolgus macaques", "setting": "c-mpl [1]", "result": "No cross-reactivity: cynomolgus macaques, cat, mouse, etc."}, {"measurement": "cross-reactivity: mouse", "setting": "c-mpl [2]", "result": "No cross-reactivity: cynomolgus macaques, cat, mouse, etc."}, {"measurement": "cross-reactivity: cat", "setting": "c-mpl [3]", "result": "No cross-reactivity: cynomolgus macaques, cat, mouse, etc."}, {"measurement": "species specificity", "setting": "c-mpl [4]", "result": "High species specificity"}, {"measurement": "T1/2", "setting": "[5]", "result": "T1/2 = 12 hr"}, {"measurement": "EC50", "setting": "Hu BM CD34", "result": "~100", "unit": "nM"}, {"measurement": "Binding site", "setting": "[6]", "result": "Binding site: a hu c-mpl transmembrane domain (His499, Thr496)"}, {"measurement": "cross-reactivity: chimpanzee", "setting": "c-mpl [7]", "result": "Cross-reactivity: chimpanzee"}]}, {"compound": "CCC(C)C(N)C(=O)NC(CCC(=O)O)C(=O)NCC(=O)N1CCCC1C(=O)NC(C(=O)NC(CC(C)C)C(=O)NC(CCCNC(=N)N)C(=O)NC(CCC(N)=O)C(=O)NC(Cc1ccc2ccccc2c1)C(=O)NC(CC(C)C)C(=O)NC(C)C(=O)NC(C)C(=O)NC(CCCNC(=N)N)C(=O)N(C)CC(=O)NC(CCCCNC(=O)CN(C)C(=O)C(CCCNC(N)N)NC(=O)C(C)NC(=O)C(C)NC(=O)C(CC(C)C)NC(=O)C(Cc1ccc2ccccc2c1)NC(=O)C(CCC(N)=O)NC(=O)C(CCCNC(=N)N)NC(=O)C(CC(C)C)NC(=O)C(NC(=O)C1CCCN1C(=O)CNC(=O)C(CCC(=O)O)NC(=O)C(NC)C(C)CC)C(C)O)C(N)=O)C(C)O", "note": "(centres unmarked) [peg-TPOmp] (I: H-IEGPTLRQ[2Nal]LAAR[Sar]K-NH2 / II: H-[NMeI]EGPTLRQ[2Nal]LAA[X1][Sar]; amide I:15-II:C; configuration not given here)", "values": [{"measurement": "cross-reactivity to mouse receptors", "setting": "mouse receptors", "result": "Cross-reactive to mouse, rat, and dog receptors"}, {"measurement": "cross-reactivity to rat receptors", "setting": "rat receptors", "result": "Cross-reactive to mouse, rat, and dog receptors"}, {"measurement": "cross-reactivity to dog receptors", "setting": "dog receptors", "result": "Cross-reactive to mouse, rat, and dog receptors"}]}]}
